How the values were obtained:
E-selectin = assay: Inhibition of E-selectin IgG chimera binding to sLex on microtiter wells; conditions: FIG. 6; E-selectin 50 ng/ml; sennoside B from 2 mM, serial 1/2 dilutions; sLex 25 pm/well
Procedure: (§1) The capacity of the multivalent anthraquinone derivative, Sennoside B, to inhibit selectin binding to sLex was tested essentially as described by Foxall, C., et al J. Cell Biol., vol. 117, pages 895-902 (1992) using selectin IgG chimeras.
(§2) The following assay procedure was used. sLex at 25 pm/well was evaporated onto microtiter wells in MeOH and H2 O overnight. The plates were washed with H2 O and blocked with 5% BSA in PBS with 1 mM Ca for 1 hour. L-selectin was diluted to 35 ng/ml in 1% BSA PBS with 1 mM Ca and 1:1500 biotinylated goat F(ab') anti-human IgG Fc (CalTag, corp.) and streptavidin-alkaline phosphatase. E-selectin at 50 ng/ml and P-selectin at 750 ng/ml were similarly diluted with 1:1000 dilutions of biotinylated goat F(ab') anti-human IgG Fc and streptavidin-alkaline phosphatase. These were allowed to complex for 15 minutes at 37° C.
(§3) Part of each selectin solution was made 2 mM with sennoside B (obtained from Pfaltz and Bauer, Inc., Waterbury, Conn.) The most concentrated solutions were diluted with the selectin solution to yield 3 solutions each 1/2 as concentrated as the previous. The solutions with selectin and inhibitor were incubated for 45 minutes at 37° C. […]
(§4) Binding is expressed as "% of No Addition Control." That is, in some wells, no inhibitor was present, and the binding in these wells represents the maximum (100%) binding.

L-selectin = assay: Inhibition of L-selectin IgG chimera binding to sLex on microtiter wells; conditions: FIG. 7; L-selectin 35 ng/ml; sennoside B from 2 mM, serial 1/2 dilutions; sLex 25 pm/well
Procedure: as §1, §2, §3, §4

P-selectin = assay: Inhibition of P-selectin IgG chimera binding to sLex on microtiter wells; conditions: FIG. 8; P-selectin 750 ng/ml; sennoside B from 2 mM, serial 1/2 dilutions; sLex 25 pm/well
Procedure: as §1, §2, §3, §4

O=C(O)c1cc(O)c2c(c1)[C@@H]([C@H]1c3cc(C(=O)O)cc(O)c3C(=O)c3c(O[C@@H]4O[C@H](CO)[C@@H](O)[C@H](O)[C@H]4O)cccc31)c1cccc(O[C@@H]3O[C@H](CO)[C@@H](O)[C@H](O)[C@H]3O)c1C2=O [Sennoside B]
E-selectin binding to sLex (expressed as % of No Addition Control) (E-selectin): inhibited | L-selectin binding to sLex (expressed as % of No Addition Control) (L-selectin): inhibited | P-selectin binding to sLex (expressed as % of No Addition Control) (P-selectin): most inhibited

Reference: patent US5412123A, “Anthraquinone and anthracene derivatives as inhibitors of the cell-adhesion molecules of the immune system” (Glycomed Incorporated, priority 1993, dated 1995)
